Residue numbers refer to the chain shown, from its start. *1 amine or outer side, *2 acyl side, *3 side chain or, on linkers, in order; H or OH if unused. Where a SMILES comes first, the peptide text is derived from it. Bridges are numbered along the chain shown (N, C = ends). Side-chain parts run from the residue outwards. [ ]: non-standard residue; d: D form. The star is where a group is joined. Trp(2-yl) = O=C([C@H](Cc1c([*:3])[nH]c2ccccc12)N[*:1])[*:2]; X1 = CN(CC(=O)O)c1nc(CC[*:1])cc(CC[*:2])n1; Dap(N3) = [N-]=[N+]=NC[C@H](N)C(=O)O; mXylylene = c1cc(C[*:1])cc(C[*:2])c1; CH2COCH2 = O=C(C[*:1])C[*:2]; Lauroyl = CCCCCCCCCCCC(=O)*; hCys = N[C@@H](CCS)C(=O)O; AEEA = NCCOCCOCC(=O)O; CH2 = C([*:1])[*:2]
Experiments:
[1] = MTT cell viability assay in HeLa cells; type: cell-based; conditions: human, HeLa cells, 48 h, ±standard deviation
Description: HeLa cells were maintained in 5% CO2 in DMEM supplemented with 10% FBS, 2 mM L-glutamine, 100 U/mL penicillin and […] streptomycin, in an atmosphere containing 5% CO2.
Cells were regularly passed and used for experiments within one month after thawing (10-15 […]
1.6.2 Cell viability assay
Cell viability was assayed by 3-(4,5-dimethylthiazol-2-yl)-2,5-diphenyltetrazolium bromide (MTT) colorimetric assay. HeLa cells were plated on 96-well plates (20,000 cells per well in 100 μL). After 24 h, cells were treated with different concentrations of test compounds or vehicle alone (DMSO). One hour before the end of the incubations, 10 μL of MTT solution (5 mg/mL in PBS) were added to each well. Formazan crystals (proportional to the number of viable cells) were then dissolved by the addition of 20 μL/well of a pH 4.7 solution containing 20% (w:v) SDS, 50% (v:v) N,N-dimethylformamide, 2% (v:v) acetic acid, and 25 mM HCl, and quantified by recording the absorbance at 570 nm using an Infinite M200 PRO plate reader (TECAN, Life Sciences). […]

CK2α [2] = target: T1, CK2α (Homo sapiens, UniProt P68400, K74A/K75A/K76A/R21S); assay: Isothermal titration calorimetry (ITC) binding to CK2α; conditions: 25 °C, CK2α_KA
T1 construct: CK2α_KA (residues 2-329) contained four mutations; made in house
T1 sequence (P68400 2-329 R21S/K74A/K75A/K76A): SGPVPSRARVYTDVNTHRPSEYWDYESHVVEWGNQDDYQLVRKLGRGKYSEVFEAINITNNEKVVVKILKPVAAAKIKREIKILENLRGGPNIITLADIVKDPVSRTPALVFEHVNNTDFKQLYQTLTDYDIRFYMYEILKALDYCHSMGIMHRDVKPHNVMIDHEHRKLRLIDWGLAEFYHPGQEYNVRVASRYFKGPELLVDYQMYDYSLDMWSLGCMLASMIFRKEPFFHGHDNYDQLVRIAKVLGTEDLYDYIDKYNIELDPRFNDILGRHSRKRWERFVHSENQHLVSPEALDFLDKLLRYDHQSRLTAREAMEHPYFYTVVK
Text: Ligand efficiency (LE) is a commonly used statistic to evaluate and compare the effectiveness of drug candidates.17 Mathematically, it is related to the IC50 of the molecule, as well as the number of heavy atoms (non-hydrogen) it contains, as detailed in Equation 1. 18
Equation 1 Mathematical expression for the ligand efficiencies of compounds.18 pIC50 = -log10(IC50) LE = Number of non ‒ H atoms […]
greatest activity with the fewest heavy atoms.
(§1) 1.5 Biophysical experiments
(§2) 1.5.1 Protein expression and purification
Three constructs of CK2α were used in this study. For FP assays, CK2α_WT was used (residues 2-329).
For ITC CK2α_KA construct was used whilst CK2α_FP10 was used for crystallisation purposes. CK2α_KA (residues 2-329) contained four mutations designed to aid crystallisation and solubility by reducing the overall charge of the protein; R21S, K74A, K75A and K76A. CK2α_FP 10 contained one mutation (R21S) and an N-terminal extension […] aimed at mimicking a substrate peptide for CK2α. These constructs were cloned, expressed, and purified as previously described.19 1.5.2 Fluorescence polarisation
(§3) IC50’s were determined using a PHERAstar FS plate reader (BMG labtech). The fluorescein probe was measured using 485 nm excitation and 530 nm emission. The fluorescein probe was covalently linked to the N-terminus of the linear CK2β-based peptide RLYGFKIHPMAYQLQ. IC50’s were measured using 500, 167, 16.7, 8.33 and 0 μM of the test peptide at a constant concentration of DMSO. P7C8, P8C9, P+L and P+ were tested at concentrations of 50.0, 16.7, 1.67, 0.833 and 0 μM due to their higher potencies. The experiments were performed in a Corning 384-well plate with final concentrations of 571 nM CK2α_WT (residues 2-329), 7.4 μM fluorescent peptide (fluorescein probe was covalently linked to the N-terminus of the linear CK2β-based peptide RLYGFKIHPMAYQLQ), 200 mM NaCl, 40mM TRIS, 20 mM MgCl2 and pH 7.5. The plates were read after a 45 min incubation period.
1.5.3 Isothermal titration calorimetry
All ITC experiments were performed at 25 °C using a MicroCal ITC-200 (GE Healthcare). […]

[3] = Solubility observations during FP and ITC testing; type: physicochemical; conditions: observed during FP or ITC testing
CK2α [4] = target: T2, CK2α (Homo sapiens, UniProt P68400); assay: Fluorescence polarisation (FP) assay: displacement of a CK2β-like fluorescent probe from CK2α; type: binding; conditions: CK2α_WT (residues 2-329), fluorescein-labelled CK2β-based peptide probe, ±SEM
T2 construct: 571 nM CK2α_WT (residues 2-329); made in house
T2 sequence (P68400 2-329): T1 sequence (P68400 2-329 R21S/K74A/K75A/K76A) with S20R, A73K, A74K, A75K
Text: To assess the ability of the synthesised linear peptides to displace a CK2β-like fluorescent probe from CK2α, a fluorescence polarisation (FP) assay was used (Table 1, ESI 1.3.2 and Fig. S2, ESI ^†). […]
as §1, §2
Three constructs of CK2α were used in this study. For FP assays, CK2α_WT was used (residues 2-329). […]
These constructs were cloned, expressed, and purified as previously described.19 1.5.2 Fluorescence polarisation
as §3, with “period. […]” for “period.”

Row | Compound | IC50 (CK2α [4]) | other results
1 | O=C(O)c1ccc2c(c1)nc(Nc1cccc(Cl)c1)c1ccncc12 [CX-4945, reference compound] | – | viability at 48 h, 50 µM ([1]; 50 μM compound, read-out: Cell viability (%) 50 μM compound): 29 ± 1%; viability at 48 h, 100 µM ([1]; 100 μM compound, read-out: Cell viability (%) 100 μM compound): 21 ± 1%
2 | CCCCCCCCCCCC(=O)NCCOCCOCC(=O)N[C@H]1CCSc2[nH]c3ccccc3c2C[C@@H](C(N)=O)NC(=O)[C@H](CCCCN)NC(=O)[C@H](Cc2ccccc2)NC(=O)CNC(=O)[C@H](Cc2ccc(O)cc2)NC(=O)[C@H](CC(C)C)NC(=O)[C@H](CCCNC(=N)N)NC1=O [FA-P8C9] ({Lauroyl-AEEA}-[hCys]RLYGFK[Trp(2-yl)]-NH2; thioether 1-8) | – | Kd (CK2α [2]): 1.3 µM
3 | CCCCCCCCCCCC(=O)NCCOCCOCC(=O)NCCCC[C@@H]1NC(=O)[C@H](Cc2ccccc2)NC(=O)CNC(=O)[C@H](Cc2ccc(O)cc2)NC(=O)[C@H](CC(C)C)NC(=O)[C@H](CCCNC(=N)N)NC(=O)[C@@H](NC(C)=O)CCSc2[nH]c3ccccc3c2C[C@@H](C(N)=O)NC1=O [P8C9[FA]] (Ac-[hCys]RLYGFK([AEEA-Lauroyl])[Trp(2-yl)]-NH2; thioether 1-8) | – | Solubility (observation in words) [3]: Precipitation
4 | CC(=O)NCCOCCOCC(=O)NCCCC[C@@H]1NC(=O)[C@H](Cc2ccccc2)NC(=O)CNC(=O)[C@H](Cc2ccc(O)cc2)NC(=O)[C@H](CC(C)C)NC(=O)[C@H](CCCNC(=N)N)NC(=O)[C@@H](NC(C)=O)CCSc2[nH]c3ccccc3c2C[C@@H](C(N)=O)NC1=O [P8C9[PEG]] (Ac-[hCys]RLYGFK([AEEA-Ac])[Trp(2-yl)]-NH2; thioether 1-8 (inferred)) | – | Kd (CK2α [2]): 1.6 µM
5 | CC(=O)NCC(=O)N[C@H]1Cn2cc(nn2)-c2cc(C(=O)O)cc(c2)-c2cn(nn2)C[C@@H](C(=O)NCC(=O)NCC(N)=O)NC(=O)[C@H](Cc2c[nH]cn2)NC(=O)[C@H](Cc2c[nH]c3ccccc23)NC(=O)[C@H](CCCCN)NC(=O)[C@H](Cc2ccccc2)NC(=O)CNC(=O)[C@H](Cc2ccc(O)cc2)NC(=O)[C@H](CC(C)C)NC(=O)[C@H](CCCNC(=N)N)NC1=O [P+, GXC1RLYGFKWHXC1GG, reference compound] | 8.7 ± 4.2 µM | –
6 | CC(=O)NCC(=O)N[C@@H](CN=[N+]=[N-])C(=O)N[C@@H](CCCNC(=N)N)C(=O)N[C@@H](CC(C)C)C(=O)N[C@@H](Cc1ccc(O)cc1)C(=O)NCC(=O)N[C@@H](Cc1ccccc1)C(=O)N[C@@H](CCCCN)C(=O)N[C@@H](Cc1c[nH]c2ccccc12)C(=O)N[C@@H](Cc1c[nH]cn1)C(=O)N[C@@H](CN=[N+]=[N-])C(=O)NCC(=O)NCC(N)=O [P+L, reference compound] (Ac-G[Dap(N3)]RLYGFKWH[Dap(N3)]GG-NH2) | 11.7 µM | –
7 | CC(=O)N[C@H]1CSCC(=O)CSC[C@@H](C(N)=O)NC(=O)[C@H](CCCCN)NC(=O)[C@H](Cc2ccccc2)NC(=O)CNC(=O)[C@H](Cc2ccc(O)cc2)NC(=O)[C@H](CC(C)C)NC(=O)[C@H](CCCNC(=N)N)NC1=O [Peptide P5C4] (Ac-CRLYGFKC-NH2; linker 1-8 via CH2COCH2) | 54.6 ± 11.2 µM | –
8 | CC(=O)N[C@H]1CSCc2cccc(c2)CSC[C@@H](C(N)=O)NC(=O)[C@H](CCCCN)NC(=O)[C@H](Cc2ccccc2)NC(=O)CNC(=O)[C@H](Cc2ccc(O)cc2)NC(=O)[C@H](CC(C)C)NC(=O)[C@H](CCCNC(=N)N)NC1=O [Peptide P5C5] (Ac-CRLYGFKC-NH2; linker 1-8 via mXylylene) | 28.9 ± 1.9 µM | –
9 | CC(=O)N[C@H]1CSCSC[C@@H](C(N)=O)NC(=O)[C@H](CCCCN)NC(=O)[C@H](Cc2ccccc2)NC(=O)CNC(=O)[C@H](Cc2ccc(O)cc2)NC(=O)[C@H](CC(C)C)NC(=O)[C@H](CCCNC(=N)N)NC1=O [Peptide P5C6] (Ac-CRLYGFKC-NH2; linker 1-8 via CH2) | – | Solubility (observation in words) [3]: poor solubility
10 | CC(=O)N[C@H]1CSCCc2cc(nc(N(C)CC(=O)O)n2)CCSC[C@@H](C(N)=O)NC(=O)[C@H](CCCCN)NC(=O)[C@H](Cc2ccccc2)NC(=O)CNC(=O)[C@H](Cc2ccc(O)cc2)NC(=O)[C@H](CC(C)C)NC(=O)[C@H](CCCNC(=N)N)NC1=O [Peptide P5C7] (Ac-CRLYGFKC-NH2; linker 1-8 via X1) | 40 ± 4.7 µM | –
11 | CC(=O)N[C@H]1CSc2[nH]c3ccccc3c2C[C@@H](C(N)=O)NC(=O)[C@H](CCCCN)NC(=O)[C@H](Cc2ccccc2)NC(=O)CNC(=O)[C@H](Cc2ccc(O)cc2)NC(=O)[C@H](CC(C)C)NC(=O)[C@H](CCCNC(=N)N)NC1=O [Peptide P7C8, CC8RLYGFKWC8] (Ac-CRLYGFK[Trp(2-yl)]-NH2; thioether 1-8) | 15.6 ± 5.1 µM | –
12 | Ac-LYGFKW-NH2 [Peptide P2, LYGFKW] | 137 ± 25.8 µM | –
13 | Ac-RLYGFK-NH2 [Peptide P1, RLYGFK] | > 500 µM | –
14 | Ac-RLYGFKW-NH2 [Peptide P3, RLYGFKW] | 22.5 ± 2.4 µM | –
15 | Ac-RLYGFKWH-NH2 [Peptide P4, RLYGFKWH] | 16.7 ± 2.3 µM | –
